The results in this text go back to patent US5229381A, “Substituted azetidinones as anti-inflammatory and antidegenerative agents” (Merck & Co., Inc., priority 1991, dated 1993).

The first assay deals with T1, human polymorphonuclear leukocyte elastase (Homo sapiens, UniProt P08246).
T1 construct: Crude extract of human polymorphonuclear leukocytes (PMN) containing elastase activity; endogenous in cells; host or cells: human polymorphonuclear leukocytes (crude extract)
T1 sequence (P08246 30-247 limits assumed): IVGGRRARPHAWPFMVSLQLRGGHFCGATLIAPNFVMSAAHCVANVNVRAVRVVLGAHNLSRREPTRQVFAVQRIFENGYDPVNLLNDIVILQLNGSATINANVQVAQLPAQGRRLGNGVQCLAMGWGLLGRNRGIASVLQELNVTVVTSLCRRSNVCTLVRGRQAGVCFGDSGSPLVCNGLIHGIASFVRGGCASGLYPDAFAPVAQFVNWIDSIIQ
Briefly: Inhibition of human polymorphonuclear leukocyte (granulocyte) elastase via hydrolysis of Boc-AAPAN or Boc-AAPVN. It counts as biochemical. The note with it: Table I; 2 min after time zero; crude PMN extract, pH 7.5.
Method: Enzyme Assays for the Inhibition of Human Polymorphonuclear Leukocyte Elastase Via Hydrolysis of N-t-Boc-alanyl-alanyl-prolylalanine-p-nitroanilide (Boc-AAPAN) or N-t-Boc-alanyl-prolylvaline-p-nitroanilide (Boc-AAPVN) Reagent:
0.05M TES (N-tris[hydroxymethyl]methyl-2-amino-ethanesulfonic acid) Buffer, pH 7.5.
0.2 mM Boc-AAPAN or Boc-AAPVN.
To prepare substrate, the solid was first dissolved in 10.0 ml DMSO. Buffer at pH 7.5 was then added to a final volume of 100 ml.
Crude extract of human polymorphonuclear leukocytes (PMN) containing elastase activity.
Inhibitors (azetidinones) to be tested dissolved in DMSO just before use.
To 1.0 ml of 0.2 mM Boc-AAPAN in a cuvette, 0.01-0.1 ml of DMSO with or without inhibitor was added. After mixing, a measurement was taken at 410 mμ to detect any spontaneous hydrolysis due to presence of test compound. 0.05 Milliliters of PMN extract was then added and the ΔOD/min at 410 mμ was measured and recorded. Beckman model 35 spectrophotometer was used.
Results were also expressed as Ki, the micromolar concentration of the inhibitor (μM) giving 50% of the control enzyme activity; or as ^k obs/I which is the second order rate constant in per mole per second for inactivation of the enzyme.
The elastase activity in the crude PMN extract may vary from one preparation to another. A control of each new batch is run, and the volume added in the assay procedure is adjusted according to activity.
On to `CC(=O)N1C(=O)CC1[S+](C)[O-]` (stereo not drawn) [Table I: H; H; SOCH3; COCH3, 1-acetyl-4-methylsulfinylazetidine-2-one], for which the “ID50, effective dosage for 50% inhibition of the enzyme activity two minutes after time zero” value came out at 10000 µg/mL.

Regarding `COC1C(=O)N(C(C)=O)C1C(=O)OCc1ccccc1` (stereo not drawn) [Table I: H; CH3 O; COOCH2 C6 H5; COCH3], the “ID50, effective dosage for 50% inhibition of the enzyme activity two minutes after time zero” value came to 2000 µg/mL.

The same assay, now with this note: pH 7.5, Table I; read-out: kobs/I, second order rate constant of inactivation of the enzyme.
For the compound `CC[C@H]1C(=O)N(S(=O)(=O)c2ccc(C)cc2)[C@H]1C(=O)OCC(=O)O` (relative stereo), the kinact/KI stood at 1550 M⁻¹ s⁻¹.

The same assay, now with this note: pH 7.5, Table II, (per mole per second); read-out: kobs/I, second order rate constant of inactivation of the enzyme.
As to `CCC1(COC)C(=O)N(C(=O)NCc2ccc(-c3ccccc3)cc2)C1Oc1ccc(C(=O)O)cc1` (stereo not drawn), the kinact/KI was found to be 44500 M⁻¹ s⁻¹.

In the case of `CCC1(C)C(=O)N(C(=O)NC(C)c2ccccc2)C1Oc1ccc(C(=O)O)cc1` (stereo not drawn), the kinact/KI is 15000 M⁻¹ s⁻¹.

Regarding `CCC1(C)C(=O)N(C(=O)NCc2cc(C)c(C(=O)O)c(C)c2)C1Oc1ccc(C(N)=O)cc1` (stereo not drawn), the kinact/KI came out at 30000 M⁻¹ s⁻¹.

`CCC1(CC)C(=O)N(C(=O)NCc2ccc(C(=O)O)cc2)C1Oc1ccccc1` (stereo not drawn): the kinact/KI stood at 1500 M⁻¹ s⁻¹.

Turning to `C=CCC1(CC)C(=O)N(C(=O)NCc2ccccc2)C1Oc1ccc(C(=O)O)cc1` (stereo not drawn), the kinact/KI came to 1970 M⁻¹ s⁻¹.

Turning to `CCC1(C)C(=O)N(C(=O)NCc2ccccc2)C1Oc1ccc(C(N)=O)cc1` (stereo not drawn), the kinact/KI worked out at 12500 M⁻¹ s⁻¹.

Still in this assay, the particulars now being: pH 7.5, Table III, (per mole per second); read-out: kobs/I, second order rate constant of inactivation of the enzyme.
Turning to `CCC1(CC)C(=O)N(C(=O)NCc2ccc(C)c(C)c2)C1Oc1ccc(C(O)C(=O)O)cc1` (stereo not drawn), the kinact/KI came to 17600 M⁻¹ s⁻¹.

On to `CCC1(CC)C(=O)N(C(=O)NCc2ccccc2)C1n1c(=O)cc[nH]c1=O` (stereo not drawn) [Table III: C00042; CH2 Ph], for which the kinact/KI stood at 351 M⁻¹ s⁻¹.

Take `CCC1(CC)C(=O)N(C(=O)NCc2ccc(C)c(C)c2)C1Oc1ccc(C(=O)O)cc1` (stereo not drawn): the kinact/KI was found to be 20600 M⁻¹ s⁻¹.

Take `CCC1(CC)C(=O)N(C(=O)NCc2ccc(-c3ccccc3)cc2)C1OCC(=O)O` (stereo not drawn) [Table III: OCH2 COOH; CH2 Ph-4-Ph]: the kinact/KI amounted to 2900 M⁻¹ s⁻¹.

Staying with this assay, now noted: pH 7.5, Table IV, (per mole per second); read-out: kobs/I, second order rate constant of inactivation of the enzyme.
For `CCC1(C)C(=O)N(C(=O)N2CCc3ccccc3C2)C1Oc1ccc(C(=O)O)cc1` (stereo not drawn), the kinact/KI came to 4380 M⁻¹ s⁻¹.

Still in this assay, the particulars now being: pH 7.5, Table V, (per mole per second); read-out: kobs/I, second order rate constant of inactivation of the enzyme.
As for `CCC1(CC)C(=O)N(C(=O)N[C@H](COC)c2ccccc2)[C@H]1Oc1ccc(C(=O)O)cc1` [Table V: 4-COOH; CH2 OMe; H], the kinact/KI worked out at 6090 M⁻¹ s⁻¹.

For the compound `CCC1(CC)C(=O)N(C(=O)N[C@H](Cc2ccccc2)c2ccccc2)[C@H]1Oc1ccc(C(=O)O)cc1` [Table V: 4-COOH; PhCH2; H], the kinact/KI came out at 25000 M⁻¹ s⁻¹.

The same assay, now with this note: pH 7.5, Table VI, (per mole per second); read-out: kobs/I, second order rate constant of inactivation of the enzyme.
Turning to `CC[C@@H](NC(=O)N1C(=O)C(CC)(CC)[C@@H]1Oc1ccc(CC(=O)O)cc1)c1ccccc1` [Table VI: 4-CH2 COOH; Et; H, (4S)-3,3-diethyl-1-[(R)-α-ethylbenzyl-aminocarbonyl]-4-[(4-carboxymethyl)phenoxy]azetidin-2-one], the kinact/KI was 126000 M⁻¹ s⁻¹.

For the compound `CCC1(CC)C(=O)N(C(=O)N[C@@H](c2ccccc2)C(C)C)[C@H]1Oc1ccc(C(=O)O)cc1` [Table VI: 4-COOH; iPr; H], the kinact/KI was determined as 177000 M⁻¹ s⁻¹.

Regarding `CC[C@@H](NC(=O)N1C(=O)C(CC)(CC)[C@@H]1Oc1ccc(C(=O)O)c(O)c1)c1ccccc1` [Table VI: 3-OH-4-COOH; Et; H], the kinact/KI was found to be 125000 M⁻¹ s⁻¹.

For the compound `CC[C@@H](NC(=O)N1C(=O)C(CC)(CC)[C@@H]1Oc1ccc(C(=O)O)cc1)c1ccccc1` [Table VI: 4-COOH; Et; H], the kinact/KI was 76200 M⁻¹ s⁻¹.

With `CCC1(CC)C(=O)N(C(=O)N[C@H](C)c2ccc(-c3ccccc3)cc2)[C@H]1Oc1ccc(C(=O)O)cc1` [Table VI: 4-COOH; Me; 4-Ph], the kinact/KI was determined as 74000 M⁻¹ s⁻¹.

Take `CCC1(CC)C(=O)N(C(=O)N[C@H](c2ccccc2)c2ccc(-c3ccccc3)cc2)[C@H]1Oc1ccc(C(=O)O)cc1` [Table VI: 4-COOH; Ph; 4-Ph]: the kinact/KI turned out to be 67800 M⁻¹ s⁻¹.

With `CCC1(CC)C(=O)N(C(=O)N[C@H](C)c2ccc(C)cc2)[C@H]1Oc1ccc(C(=O)O)cc1` [Table VI: 4-COOH; Me; 4-Me], the kinact/KI worked out at 10700 M⁻¹ s⁻¹.

`CCC1(CC)C(=O)N(C(=O)N[C@H](C)c2ccccc2)[C@H]1Oc1ccc(CC(=O)O)cc1` [Table VI: 4-CH2 COOH; Me; H]: the kinact/KI was 8370 M⁻¹ s⁻¹.
